According to patent US20170305883A1, “Compositions and Methods for Inhibiting BMP” (THE BRIGHAM AND WOMEN'S HOSPITAL, INC., priority 2014, published 2017):

Experiments:
ALK2 = molecular target: T1, ALK2 (Homo sapiens, UniProt Q04771, Q207D); assay: Thermal shift kinase assay; assay type: binding; conditions: ALK2 ΔTm minus ALK5 ΔTm
T1 construct: His tag (N, cleaved yes); made in house; host or cells: Sf9 insect cells (baculovirus)
T1 sequence (Q04771 201-499 Q207D): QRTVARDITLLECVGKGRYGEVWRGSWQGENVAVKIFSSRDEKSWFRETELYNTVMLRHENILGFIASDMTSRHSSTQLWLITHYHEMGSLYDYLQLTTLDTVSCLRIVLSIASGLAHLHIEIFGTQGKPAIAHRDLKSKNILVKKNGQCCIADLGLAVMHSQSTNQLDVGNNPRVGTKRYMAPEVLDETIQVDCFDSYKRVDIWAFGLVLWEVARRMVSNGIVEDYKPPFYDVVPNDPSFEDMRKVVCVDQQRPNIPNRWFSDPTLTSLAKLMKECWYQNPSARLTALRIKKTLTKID
Description: Thermal melting experiments were performed using a Real Time PCR machine Mx3005p (Stratagene) with a protein concentration of 1-2 μM and 10 μM inhibitor as described by Niesen et al., Nat Protoc 2007, 2, 2212-21. Recombinant human kinases for DSF screening were prepared by SGC using the published methods of […] et al., PLoS One 2013, 8, e62721. The potency and selectivity of certain compounds of the invention based on thermal shift kinase and ligand induced transcriptional activity assays are shown in Table 2.

PKC-η = PKC-η (Homo sapiens, UniProt P24723); assay: Kinome profiling; assay type: biochemical; conditions: 100 nM, read-out: Inhibitory activity
Description: The kinome-wide selectivity was determined following the methods previously reported by Mohedas et al., ACS Chem Biol 2013, 8, 1291-1302 and […] et al., PLoS One 2013, 8, e62721.

Sequence of PKC-η (P24723 whole entry): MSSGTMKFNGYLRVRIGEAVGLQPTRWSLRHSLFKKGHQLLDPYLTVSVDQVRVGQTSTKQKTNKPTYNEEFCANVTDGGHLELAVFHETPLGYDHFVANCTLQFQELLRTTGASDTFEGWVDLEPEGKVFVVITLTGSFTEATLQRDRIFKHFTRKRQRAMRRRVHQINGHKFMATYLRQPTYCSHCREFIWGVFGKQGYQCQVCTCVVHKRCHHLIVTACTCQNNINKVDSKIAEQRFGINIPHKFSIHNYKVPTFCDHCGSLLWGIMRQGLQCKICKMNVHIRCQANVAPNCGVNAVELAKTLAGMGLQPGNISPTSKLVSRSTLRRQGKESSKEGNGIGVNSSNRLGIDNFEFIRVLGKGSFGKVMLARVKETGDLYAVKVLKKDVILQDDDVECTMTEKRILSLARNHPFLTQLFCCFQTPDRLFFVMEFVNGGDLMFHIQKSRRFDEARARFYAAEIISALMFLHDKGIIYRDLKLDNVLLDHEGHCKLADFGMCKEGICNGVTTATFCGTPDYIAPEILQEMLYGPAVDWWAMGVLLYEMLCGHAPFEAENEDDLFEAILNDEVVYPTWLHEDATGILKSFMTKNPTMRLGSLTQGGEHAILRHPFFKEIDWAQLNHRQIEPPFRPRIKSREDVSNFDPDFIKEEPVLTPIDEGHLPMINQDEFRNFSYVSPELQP

Row | SMILES | ΔTm Diff. (ALK2) [°C] | inhibition at 0.1 µM (PKC-η) [%]
1 | COc1cc(-c2cc(-c3ccc(N4CCNCC4)cc3)cnc2C)cc(OC)c1OC [Compound 10, 1-(4-(6-methyl-5-(3,4,5-trimethoxyphenyl)pyridin-3-yl)phenyl)piperazine] | 4.0 | 
2 | COc1cc(-c2cc(-c3ccc(O)cc3)cnc2N)cc(OC)c1OC [Compound 11, 4-(6-Amino-5-(3,4,5-trimethoxyphenyl)pyridin-3-yl)phenol] | 1.5 | 
3 | COc1cc(-c2cnc(N)c(-c3cc(OC)c(OC)c(OC)c3)c2)ccc1O [Compound 12, 4-(6-amino-5-(3,4,5-trimethoxyphenyl)pyridin-3-yl)-2-methoxyphenol] | 1.7 | 
4 | COc1cc(-c2cc(-c3cccc(NS(C)(=O)=O)c3)cnc2N)cc(OC)c1OC [Compound 13, N-(3-(6-amino-5-(3,4,5-trimethoxyphenyl)pyridin-3-yl)phenyl)methanesulfonamide] | 0.9 | 
5 | COc1cc(-c2cc(-c3cccc(N4CCNCC4)c3)cnc2N)cc(OC)c1OC [Compound 14, 5-(3-(piperazin-1-yl)phenyl)-3-(3,4,5-trimethoxyphenyl)pyridin-2-amine] | 0.8 | 
6 | COc1cc(-c2cc(-c3ccc(N4CCNCC4)cc3)cnc2N)cc(OC)c1OC [Compound 15, 5-(4-(piperazin-1-yl)phenyl)-3-(3,4,5-trimethoxyphenyl)pyridin-2-amine] | 1.2 | 5
7 | COc1ccc(-c2cc(-c3ccc(N4CCNCC4)cc3)cnc2N)cc1OC [Compound 16, 3-(3,4-dimethoxyphenyl)-5-(4-(piperazin-1-yl)phenyl)pyridin-2-amine] | 4.3 | 
8 | COc1cc(OC)cc(-c2cc(-c3ccc(N4CCNCC4)cc3)cnc2N)c1 [Compound 17, 3-(3,5-dimethoxyphenyl)-5-(4-(piperazin-1-yl)phenyl)pyridin-2-amine] | 3.5 | 
9 | COc1cccc(-c2cc(-c3ccc(N4CCNCC4)cc3)cnc2N)c1 [Compound 18, 3-(3-methoxyphenyl)-5-(4-(piperazin-1-yl)phenyl)pyridin-2-amine] | 3.8 | 
10 | Nc1ncc(-c2ccc(N3CCNCC3)cc2)cc1-c1ccc2c(c1)OCCO2 [Compound 19, 3-(2,3-dihydrobenzo[b][1,4]dioxin-6-yl)-5-(4-(piperazin-1-yl)phenyl)pyridin-2-amine] | 4.0 | 
11 | COc1ccc(-c2cc(-c3ccc(N4CCNCC4)cc3)cnc2N)cc1 [Compound 20, 3-(4-methoxyphenyl)-5-(4-(piperazin-1-yl)phenyl)pyridin-2-amine] | 4.5 | 
12 | CC(C)Oc1cccc(-c2cc(-c3ccc(N4CCNCC4)cc3)cnc2N)c1 [Compound 21, 3-(3-isopropoxyphenyl)-5-(4-(piperazin-1-yl)phenyl)pyridin-2-amine] | 1.0 | 
13 | COc1cc(-c2cc(-c3ccc(N4CCNCC4)cc3)cnc2N)ccc1Cl [Compound 22, 3-(4-chloro-3-methoxyphenyl)-5-(4-(piperazin-1-yl)phenyl)pyridin-2-amine] | 2.7 | 
14 | COc1cc(-c2cc(-c3ccc(N4CCNCC4)cc3)cnc2N)ccc1C [Compound 23, 3-(3-methoxy-4-methylphenyl)-5-(4-(piperazin-1-yl)phenyl)pyridin-2-amine] | 3.8 | 
15 | CNc1ncc(-c2ccc(N3CCNCC3)cc2)cc1-c1cc(OC)c(OC)c(OC)c1 [Compound 24, N-methyl-5-(4-(piperazin-1-yl)phenyl)-3-(3,4,5-trimethoxyphenyl)pyridin-2-amine] | −0.5 | 
16 | COc1cc(-c2cc(-c3ccc(N4CCNCC4)cc3)cnc2N(C)C)cc(OC)c1OC [Compound 25, N,N-dimethyl-5-(4-(piperazin-1-yl)phenyl)-3-(3,4,5-trimethoxyphenyl)pyridin-2-amine] | 0.1 | 
17 | COc1cc(-c2cncc(-c3ccc(N4CCNCC4)cc3)c2)cc(OC)c1OC [Compound 26, 1-(4-(5-(3,4,5-trimethoxyphenyl)pyridin-3-yl)phenyl)piperazine] | 3.7 | 
18 | COc1cc(-c2cc(-c3ccc(N4CCNCC4)cc3)cnc2Cl)cc(OC)c1OC [Compound 27, 1-(4-(6-chloro-5-(3,4,5-trimethoxyphenyl)pyridin-3-yl)phenyl)piperazine] | 3.8 | 
19 | COc1cc(-c2cc(-c3ccc(N4CCNCC4)cc3)cnc2OC)cc(OC)c1OC [Compound 28, 1-(4-(6-methoxy-5-(3,4,5-trimethoxyphenyl)pyridin-3-yl)phenyl)piperazine] | 0.1 | 
20 | Nc1ncc(-c2ccc(N3CCNCC3)cc2)cc1-c1ccnc2ccccc12 [Compound 29] | 3.4 | 
21 | Nc1ncc(-c2cccc(N3CCNCC3)c2)cc1-c1ccnc2ccccc12 [Compound 30, 5-(3-(piperazin-1-yl)phenyl)-3-(quinolin-4-yl)pyridin-2-amine] | 2.5 | 
22 | Nc1ncc(-c2ccc(N3CCNCC3)cc2)cc1-c1cccc2ncccc12 [Compound 31, 5-(4-(piperazin-1-yl)phenyl)-3-(quinolin-5-yl)pyridin-2-amine] | 4.2 | 
23 | COc1cc(-c2cnn3cc(-c4ccc(N5CCNCC5)cc4)cnc23)cc(OC)c1OC [Compound 32, 3-(3,4,5-trimethoxyphenyl)-6-[4-(1-piperazinyl)phenyl]pyrazolo[1,5-a]pyrimidine] | 2.6 | 
24 | COc1cc(OC)cc(-c2cncc(-c3ccc(N4CCNCC4)cc3)c2)c1 [Compound 33, 1-(4-(5-(3,5-dimethoxyphenyl)pyridin-3-yl)phenyl)piperazine] | 4.7 | 
25 | COc1cc(-c2cc(-c3cccc(O)c3)cnc2N)cc(OC)c1OC [Compound K02288, 3-(6-Amino-5-(3,4,5-trimethoxyphenyl)pyridin-3-yl)phenol, reference compound] | 2.0 | 
